Measured values: the NIST ThermoML archive (doi:10.1021/acs.jced.7b00712)
± gives the expanded uncertainty stated by the source.

Details: Brillouin light scattering

CCCCCCCC [octane]
Details	speed of sound [m/s]
573.03 K, 7000 kPa, Liquid	341 ± 5
573.05 K, 4000 kPa, Fluid (supercritical or subcritical phases)	228.1 ± 6.4
573.37 K, 10000 kPa, Liquid	414 ± 5.7
573.6 K, 12000 kPa, Liquid	454.4 ± 6.1
573.69 K, 3500 kPa, Fluid (supercritical or subcritical phases)	189 ± 7.6
573.8 K, 3000 kPa, Fluid (supercritical or subcritical phases)	135.4 ± 8.6
573.9 K, 4500 kPa, Fluid (supercritical or subcritical phases)	250.4 ± 5.2
575.02 K, 4000 kPa, Fluid (supercritical or subcritical phases)	217.1 ± 5.2
575.57 K, 7000 kPa, Liquid	332.6 ± 4.9
576.28 K, 10000 kPa, Liquid	408.7 ± 5.7
576.53 K, 12000 kPa, Liquid	451.3 ± 6.1
577.56 K, 3000 kPa, Fluid (supercritical or subcritical phases)	110.1 ± 9.4
577.56 K, 4500 kPa, Fluid (supercritical or subcritical phases)	236.5 ± 6.1
577.86 K, 3500 kPa, Fluid (supercritical or subcritical phases)	168.5 ± 6.8
578.92 K, 7000 kPa, Liquid	323.1 ± 4.7
579.05 K, 4000 kPa, Fluid (supercritical or subcritical phases)	198.3 ± 6.3
579.36 K, 10000 kPa, Liquid	400.8 ± 5.6
579.57 K, 12000 kPa, Liquid	444.1 ± 6
582.19 K, 3000 kPa, Fluid (supercritical or subcritical phases)	86.9 ± 8.4
582.61 K, 3500 kPa, Fluid (supercritical or subcritical phases)	144.9 ± 7.1
583.28 K, 4500 kPa, Fluid (supercritical or subcritical phases)	215.8 ± 5.5
583.76 K, 4000 kPa, Fluid (supercritical or subcritical phases)	181 ± 5.8
584.07 K, 5000 kPa, Fluid (supercritical or subcritical phases)	239.2 ± 4.8
584.52 K, 6000 kPa, Fluid (supercritical or subcritical phases)	280.5 ± 4.8
584.97 K, 7000 kPa, Fluid (supercritical or subcritical phases)	314.5 ± 5
585.27 K, 8000 kPa, Fluid (supercritical or subcritical phases)	351.8 ± 5.1
585.51 K, 9000 kPa, Fluid (supercritical or subcritical phases)	367.9 ± 5.1
585.79 K, 10000 kPa, Fluid (supercritical or subcritical phases)	392.1 ± 5.5
585.88 K, 3000 kPa, Fluid (supercritical or subcritical phases)	88.4 ± 5.5
586.85 K, 3500 kPa, Fluid (supercritical or subcritical phases)	124.2 ± 6.6
587.72 K, 4500 kPa, Fluid (supercritical or subcritical phases)	200.5 ± 5.6
588.01 K, 4000 kPa, Fluid (supercritical or subcritical phases)	166.2 ± 5.9
588.39 K, 5000 kPa, Fluid (supercritical or subcritical phases)	226.1 ± 4.9
588.83 K, 6000 kPa, Fluid (supercritical or subcritical phases)	270.2 ± 4.7
589.14 K, 7000 kPa, Fluid (supercritical or subcritical phases)	302.3 ± 4.8
589.41 K, 8000 kPa, Fluid (supercritical or subcritical phases)	337 ± 5
589.67 K, 9000 kPa, Fluid (supercritical or subcritical phases)	358.4 ± 5.1
589.68 K, 3000 kPa, Fluid (supercritical or subcritical phases)	93.7 ± 2.3
589.93 K, 10000 kPa, Fluid (supercritical or subcritical phases)	385.1 ± 5.4
591.09 K, 3500 kPa, Fluid (supercritical or subcritical phases)	108.6 ± 5.7
591.69 K, 4500 kPa, Fluid (supercritical or subcritical phases)	186.7 ± 4.7
593.97 K, 5000 kPa, Fluid (supercritical or subcritical phases)	206.7 ± 5.3
594.05 K, 4000 kPa, Fluid (supercritical or subcritical phases)	140.2 ± 5.5
594.09 K, 6000 kPa, Fluid (supercritical or subcritical phases)	255.1 ± 4.8
594.28 K, 7000 kPa, Fluid (supercritical or subcritical phases)	290.8 ± 4.7
594.52 K, 8000 kPa, Fluid (supercritical or subcritical phases)	322.3 ± 4.8
594.74 K, 9000 kPa, Fluid (supercritical or subcritical phases)	346.5 ± 5
594.9 K, 3000 kPa, Fluid (supercritical or subcritical phases)	102.1 ± 1.4
594.94 K, 10000 kPa, Fluid (supercritical or subcritical phases)	374.1 ± 5.3
596.02 K, 3500 kPa, Fluid (supercritical or subcritical phases)	100.7 ± 4.5
597.28 K, 4500 kPa, Fluid (supercritical or subcritical phases)	170.5 ± 5
598.63 K, 4000 kPa, Fluid (supercritical or subcritical phases)	125.5 ± 5.4
599.12 K, 3000 kPa, Fluid (supercritical or subcritical phases)	108.9 ± 2.6
599.17 K, 5000 kPa, Fluid (supercritical or subcritical phases)	192.7 ± 4.8
599.18 K, 6000 kPa, Fluid (supercritical or subcritical phases)	241.2 ± 4.6
599.55 K, 7000 kPa, Fluid (supercritical or subcritical phases)	276.6 ± 4.6
599.72 K, 8000 kPa, Fluid (supercritical or subcritical phases)	309.6 ± 4.7
599.76 K, 3500 kPa, Fluid (supercritical or subcritical phases)	95.6 ± 3.6
600 K, 9000 kPa, Fluid (supercritical or subcritical phases)	334 ± 4.8
601 K, 10000 kPa, Fluid (supercritical or subcritical phases)	358.1 ± 5.2
601.1 K, 4500 kPa, Fluid (supercritical or subcritical phases)	159.7 ± 4.9
602.47 K, 4000 kPa, Fluid (supercritical or subcritical phases)	114.3 ± 6.6
603.01 K, 5000 kPa, Fluid (supercritical or subcritical phases)	180.4 ± 4.5
603.24 K, 6000 kPa, Fluid (supercritical or subcritical phases)	226.2 ± 4.2
603.85 K, 8000 kPa, Fluid (supercritical or subcritical phases)	299 ± 4.8
604.21 K, 9000 kPa, Fluid (supercritical or subcritical phases)	324.3 ± 4.7
605.28 K, 3000 kPa, Fluid (supercritical or subcritical phases)	116.6 ± 4
605.73 K, 3500 kPa, Fluid (supercritical or subcritical phases)	94.8 ± 2.3
606.87 K, 4000 kPa, Fluid (supercritical or subcritical phases)	111.1 ± 5.5
607.11 K, 4500 kPa, Fluid (supercritical or subcritical phases)	144.8 ± 5.2
607.61 K, 5000 kPa, Fluid (supercritical or subcritical phases)	169.3 ± 4.4
607.97 K, 6000 kPa, Fluid (supercritical or subcritical phases)	215.3 ± 4.5
608.4 K, 7000 kPa, Fluid (supercritical or subcritical phases)	254.8 ± 4.4
608.86 K, 8000 kPa, Fluid (supercritical or subcritical phases)	285.3 ± 4.4
609.24 K, 9000 kPa, Fluid (supercritical or subcritical phases)	312.3 ± 4.6
609.54 K, 10000 kPa, Fluid (supercritical or subcritical phases)	340.1 ± 5
610.17 K, 3000 kPa, Fluid (supercritical or subcritical phases)	124.3 ± 3.7
610.28 K, 3500 kPa, Fluid (supercritical or subcritical phases)	103.2 ± 3.7
611.94 K, 4500 kPa, Fluid (supercritical or subcritical phases)	133.3 ± 4.3
612.5 K, 4000 kPa, Fluid (supercritical or subcritical phases)	108.7 ± 4
613.58 K, 5000 kPa, Fluid (supercritical or subcritical phases)	153.7 ± 4.5
613.8 K, 6000 kPa, Fluid (supercritical or subcritical phases)	204.8 ± 4.5
614.19 K, 7000 kPa, Fluid (supercritical or subcritical phases)	242.3 ± 4.2
614.65 K, 8000 kPa, Fluid (supercritical or subcritical phases)	273.2 ± 4.3
614.76 K, 3000 kPa, Fluid (supercritical or subcritical phases)	129.2 ± 3.3
614.83 K, 3500 kPa, Fluid (supercritical or subcritical phases)	111.5 ± 1.5
615.18 K, 9000 kPa, Fluid (supercritical or subcritical phases)	302 ± 4.6
616.02 K, 4500 kPa, Fluid (supercritical or subcritical phases)	128.5 ± 3.6
616.33 K, 5000 kPa, Fluid (supercritical or subcritical phases)	148.3 ± 3.9
617.46 K, 4000 kPa, Fluid (supercritical or subcritical phases)	110.4 ± 3.3
619.43 K, 3000 kPa, Fluid (supercritical or subcritical phases)	134.1 ± 3
619.62 K, 3500 kPa, Fluid (supercritical or subcritical phases)	119 ± 1.6
619.76 K, 4500 kPa, Fluid (supercritical or subcritical phases)	125.2 ± 2
620.31 K, 5000 kPa, Fluid (supercritical or subcritical phases)	144 ± 3.7
622 K, 4000 kPa, Fluid (supercritical or subcritical phases)	112.6 ± 2.7
623.42 K, 5000 kPa, Fluid (supercritical or subcritical phases)	141.6 ± 3.7
623.5 K, 6000 kPa, Fluid (supercritical or subcritical phases)	184.3 ± 4.1
623.84 K, 7000 kPa, Fluid (supercritical or subcritical phases)	224.1 ± 4.1
624.5 K, 8000 kPa, Fluid (supercritical or subcritical phases)	254.1 ± 4.1
624.55 K, 3500 kPa, Fluid (supercritical or subcritical phases)	124.9 ± 2.6
624.66 K, 4000 kPa, Fluid (supercritical or subcritical phases)	114.2 ± 1.5
624.87 K, 9000 kPa, Fluid (supercritical or subcritical phases)	283.1 ± 4.4
624.89 K, 3000 kPa, Fluid (supercritical or subcritical phases)	139.4 ± 2.9
625 K, 4500 kPa, Fluid (supercritical or subcritical phases)	125.1 ± 2.6
625.29 K, 5000 kPa, Fluid (supercritical or subcritical phases)	139.2 ± 3
628.69 K, 4000 kPa, Fluid (supercritical or subcritical phases)	120.4 ± 1.7
629.77 K, 5000 kPa, Fluid (supercritical or subcritical phases)	137.3 ± 2.5
629.96 K, 3500 kPa, Fluid (supercritical or subcritical phases)	132.1 ± 1.9
630.15 K, 3000 kPa, Fluid (supercritical or subcritical phases)	144.3 ± 2.7
630.45 K, 4500 kPa, Fluid (supercritical or subcritical phases)	126.6 ± 2.3
632.06 K, 4000 kPa, Fluid (supercritical or subcritical phases)	124.2 ± 1.7
633.13 K, 5000 kPa, Fluid (supercritical or subcritical phases)	137.6 ± 2.6
633.62 K, 6000 kPa, Fluid (supercritical or subcritical phases)	169.8 ± 3.5
633.94 K, 7000 kPa, Fluid (supercritical or subcritical phases)	204.8 ± 3.9
634.48 K, 8000 kPa, Fluid (supercritical or subcritical phases)	240.7 ± 4.3
635.95 K, 3000 kPa, Fluid (supercritical or subcritical phases)	149.3 ± 2.5
635.97 K, 3500 kPa, Fluid (supercritical or subcritical phases)	140 ± 2.3
636.07 K, 4000 kPa, Fluid (supercritical or subcritical phases)	131.6 ± 1.9
636.31 K, 4500 kPa, Fluid (supercritical or subcritical phases)	132 ± 1.7
637.58 K, 5000 kPa, Fluid (supercritical or subcritical phases)	140.4 ± 2.2
638.73 K, 3500 kPa, Fluid (supercritical or subcritical phases)	142.4 ± 2.1
638.9 K, 3000 kPa, Fluid (supercritical or subcritical phases)	152.4 ± 2.5
639.03 K, 4500 kPa, Fluid (supercritical or subcritical phases)	134.5 ± 1.8
642.09 K, 5000 kPa, Fluid (supercritical or subcritical phases)	144.1 ± 2
642.28 K, 6000 kPa, Fluid (supercritical or subcritical phases)	160.5 ± 2.9
642.66 K, 4000 kPa, Fluid (supercritical or subcritical phases)	142.7 ± 1.9
642.75 K, 7000 kPa, Fluid (supercritical or subcritical phases)	194.7 ± 3.8
643.16 K, 8000 kPa, Fluid (supercritical or subcritical phases)	229.4 ± 4.1
